According to US20100048462A1, “TRUNCATED PTH PEPTIDES WITH A CYCLIC CONFORMATION” (Zealand Pharma A/S, priority 2006, published 2010):
Bridge positions count the residues as written; N and C are the ends. Square brackets hold non-standard residues; d marks the D form. Peptide text beside a SMILES is read from it. hArg = N=C(N)NCCCC[C@H](N)C(=O)O; Ac5c = NC1(C(=O)O)CCCC1; Aib = CC(C)(N)C(=O)O

Biological target: CYP2D6 (Homo sapiens, UniProt P10635)
Test: CYP2D6 inhibition in pooled human liver microsomes
Format: in vitro ADME
Design: Pooled human liver microsomes (HLM, final concentration 0.05 mg protein/mL); tissue BD Biosciences 452161; host or cells: pooled human liver microsomes
Summary of the method: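 Pooled HLM (0.05 mg/mL) in 0.1 M KPi pH 7.4 with 5 μM dextromethorphan and 10 μM test compound, preincubated 5 min at 37 °C, then started with NADPH-regenerating system for 5 min. Dextrorphan quantified by LC/MS/MS; activity expressed as % of vehicle; <70% considered significant.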

Chain of CYP2D6 (P10635 whole entry): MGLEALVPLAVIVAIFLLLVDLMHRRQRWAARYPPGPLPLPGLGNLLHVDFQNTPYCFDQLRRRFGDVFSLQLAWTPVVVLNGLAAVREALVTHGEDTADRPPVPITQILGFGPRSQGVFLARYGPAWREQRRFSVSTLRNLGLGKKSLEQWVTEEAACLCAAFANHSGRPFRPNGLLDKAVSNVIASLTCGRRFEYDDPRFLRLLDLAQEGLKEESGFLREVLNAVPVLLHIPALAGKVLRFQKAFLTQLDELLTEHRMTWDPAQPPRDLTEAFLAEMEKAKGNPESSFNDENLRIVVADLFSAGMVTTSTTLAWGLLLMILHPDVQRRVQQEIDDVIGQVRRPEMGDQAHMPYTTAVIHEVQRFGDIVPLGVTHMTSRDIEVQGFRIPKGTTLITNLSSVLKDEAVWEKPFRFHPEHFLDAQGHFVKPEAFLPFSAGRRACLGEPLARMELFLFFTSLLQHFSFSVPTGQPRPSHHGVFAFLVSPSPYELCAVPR

## CC[C@H](C)[C@H](NC(=O)[C@H](CCC(=O)O)NC(=O)C(C)(C)NC(=O)[C@@H](NC(=O)C1(N)CCCC1)C(C)C)C(=O)N[C@@H](CCC(N)=O)C(=O)N[C@@H](CC(C)C)C(=O)N[C@@H](CC(C)C)C(=O)N[C@@H](Cc1c[nH]cn1)C(=O)N[C@@H](CCC(N)=O)C(=O)N[C@@H](CCCCNC(=N)N)C(=O)N[C@@H](C)C(=O)N[C@H]1CCCCNC(=O)C[C@@H](C(N)=O)NC(=O)[C@H](CC(N)=O)NC(=O)[C@H](CC(C)C)NC(=O)[C@H](Cc2c[nH]c3ccccc23)NC1=O [SEQ ID NO: 19, H-Ac5c-Val-Aib-Glu-Ile-Gln-Leu-Leu-His-Gln-Har-Ala-Lys( )-Trp-Leu-Asn-Asp( )-NH2] (H-[Ac5c]V[Aib]EIQLLHQ[hArg]AKWLND-NH2; lactam 13-17)
  effect on CYP2D6 activity in words: absence of any inhibitory effect on CYP2D6 activity
10 μM compound, dextrorphan formation rate
  CYP2D6 activity (% of vehicle): 90 % of vehicle
